Patent publication US20250346597A1, “CONDENSED HETEROCYCLIC COMPOUNDS AS INHIBITOR OF DIACYLGLYCEROL KINASES” (BEONE MEDICINES I GMBH, priority 2023, published 2025)

Columns and labels:
DGKζ = DGKζ (Homo sapiens (Human), UniProt Q13574); assay: Biochemical DGK IC50 assay (ADP-Glo, lipid micelle substrate), DGKζ; conditions: full length DGKζ 0.5 nM, ATP 140 μM, DAG 80 μM
Method in brief: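 Full-length human His-TEV-tagged DGKζ, expressed in Sf9 cells and purified, was run at room temperature on DAG/PS lipid micelles in 50 mM HEPES, 10 mM MgCl2, 0.01 mM CaCl2 buffer. After 1 h reaction, ADP formed was detected by ADP-Glo luminescence. IC50s came from inhibition across increasing compound concentrations.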

DGKα = DGKα (Homo sapiens (Human), UniProt P23743); assay: Biochemical DGK IC50 assay (ADP-Glo, lipid micelle substrate), DGKα; conditions: full length DGKα […], ATP 140 μM, DAG 80 μM; also: full length DGKα 7.5 nM
Method in brief: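 Full-length human DGKα assayed by ADP-Glo with DAG/PS lipid micelle substrate at room temperature in 50 mM HEPES, 10 mM MgCl2, 0.01% BSA, 0.1 mM Na3VO4, 0.005% Tween-20, 0.01 mM CaCl2.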

Chain of DGKα (P23743 whole entry): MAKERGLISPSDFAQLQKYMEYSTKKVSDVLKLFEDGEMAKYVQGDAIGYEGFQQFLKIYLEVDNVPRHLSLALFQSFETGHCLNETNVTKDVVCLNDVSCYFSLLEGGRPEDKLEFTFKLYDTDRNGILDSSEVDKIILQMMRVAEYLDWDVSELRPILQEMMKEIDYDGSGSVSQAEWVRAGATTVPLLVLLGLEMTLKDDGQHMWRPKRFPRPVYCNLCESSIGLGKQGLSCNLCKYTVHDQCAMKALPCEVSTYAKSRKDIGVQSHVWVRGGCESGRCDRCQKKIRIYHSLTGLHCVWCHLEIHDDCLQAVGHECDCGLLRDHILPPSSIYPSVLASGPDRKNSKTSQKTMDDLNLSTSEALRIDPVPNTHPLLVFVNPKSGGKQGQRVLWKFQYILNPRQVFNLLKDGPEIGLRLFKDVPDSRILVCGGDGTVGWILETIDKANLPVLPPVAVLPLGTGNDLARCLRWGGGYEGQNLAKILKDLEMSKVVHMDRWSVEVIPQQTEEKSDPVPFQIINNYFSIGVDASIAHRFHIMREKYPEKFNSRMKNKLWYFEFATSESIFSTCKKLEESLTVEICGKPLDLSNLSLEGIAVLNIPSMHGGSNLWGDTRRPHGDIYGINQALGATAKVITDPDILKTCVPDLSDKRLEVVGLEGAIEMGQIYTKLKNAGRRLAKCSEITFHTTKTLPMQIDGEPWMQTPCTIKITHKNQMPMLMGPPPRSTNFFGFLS
Chain of DGKζ (Q13574 other isoform, or with tags, fused parts or gaps): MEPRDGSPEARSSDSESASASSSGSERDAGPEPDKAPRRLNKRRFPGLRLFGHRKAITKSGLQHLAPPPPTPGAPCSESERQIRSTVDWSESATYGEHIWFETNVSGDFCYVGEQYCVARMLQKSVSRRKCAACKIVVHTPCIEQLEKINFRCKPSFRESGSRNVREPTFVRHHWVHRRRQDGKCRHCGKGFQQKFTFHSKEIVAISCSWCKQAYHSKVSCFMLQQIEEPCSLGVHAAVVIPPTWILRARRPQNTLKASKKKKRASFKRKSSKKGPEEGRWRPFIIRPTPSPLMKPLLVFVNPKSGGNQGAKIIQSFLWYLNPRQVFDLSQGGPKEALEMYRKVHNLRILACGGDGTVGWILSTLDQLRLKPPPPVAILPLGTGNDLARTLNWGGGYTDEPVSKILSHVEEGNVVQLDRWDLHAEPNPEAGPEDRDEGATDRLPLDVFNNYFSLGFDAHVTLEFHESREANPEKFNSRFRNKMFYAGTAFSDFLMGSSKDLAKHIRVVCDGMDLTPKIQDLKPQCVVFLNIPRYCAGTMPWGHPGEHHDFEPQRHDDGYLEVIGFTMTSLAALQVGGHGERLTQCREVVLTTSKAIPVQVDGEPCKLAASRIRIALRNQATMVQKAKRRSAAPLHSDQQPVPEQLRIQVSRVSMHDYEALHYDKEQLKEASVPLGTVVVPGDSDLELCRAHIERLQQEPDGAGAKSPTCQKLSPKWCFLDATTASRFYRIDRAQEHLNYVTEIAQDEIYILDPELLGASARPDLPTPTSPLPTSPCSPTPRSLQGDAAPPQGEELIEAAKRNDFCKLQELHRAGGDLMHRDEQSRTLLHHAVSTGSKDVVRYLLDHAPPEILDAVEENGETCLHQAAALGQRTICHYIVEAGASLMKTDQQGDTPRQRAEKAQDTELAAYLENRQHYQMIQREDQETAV

| IC50 (DGKζ) | IC50 (DGKα) | Compound |
| --- | --- | --- |
| 0.135 µM | 0.018 µM | CC[C@H]1CN(C(C)c2ccc3cc(C(F)F)sc3n2)[C@H](CC)CN1c1cc(=O)n(C)c2cn(CC#N)nc12 (single isomer, unassigned) [Compound A144b] |
| 2.72 µM | 1.11 µM | CC[C@H]1CN(C(C)c2ccc3nc(C)cn3n2)[C@H](CC)CN1c1cc(=O)n(C)c2cn(CC#N)nc12 (single isomer, unassigned) [Compound A149a] |
| 0.093 µM | 0.043 µM | CC[C@H]1CN(C(C)c2ccc3nc(C)cn3n2)[C@H](CC)CN1c1cc(=O)n(C)c2cn(CC#N)nc12 (single isomer, unassigned) [Compound A149b] |
| 4.61 µM | 7.32 µM | CC[C@H]1CN(C(C)c2ccn3ncc(C)c3n2)[C@H](CC)CN1c1cc(=O)n(C)c2cn(CC#N)nc12 (single isomer, unassigned) [Compound A151a] |
| 0.0075 µM | 0.156 µM | CC[C@H]1CN(C(C)c2ccn3ncc(C)c3n2)[C@H](CC)CN1c1cc(=O)n(C)c2cn(CC#N)nc12 (single isomer, unassigned) [Compound A151b] |
| 3.09 µM | 1.91 µM | CC[C@H]1CN(C(C)c2ccn3nc(C)cc3n2)[C@H](CC)CN1c1cc(=O)n(C)c2cn(CC#N)nc12 (single isomer, unassigned) [Compound A152a] |
| 0.0655 µM | 0.045 µM | CC[C@H]1CN(C(C)c2ccn3nc(C)cc3n2)[C@H](CC)CN1c1cc(=O)n(C)c2cn(CC#N)nc12 (single isomer, unassigned) [Compound A152b] |
| > 10 µM | 2.72 µM | CCc1cn2nc(C(C)N3C[C@H](CC)N(c4cc(=O)n(C)c5cn(CC#N)nc45)C[C@H]3CC)ccc2n1 (single isomer, unassigned) [Compound A153a] |
| 0.195 µM | 0.072 µM | CCc1cn2nc(C(C)N3C[C@H](CC)N(c4cc(=O)n(C)c5cn(CC#N)nc45)C[C@H]3CC)ccc2n1 (single isomer, unassigned) [Compound A153b] |
| > 10 µM | 0.505 µM | CC[C@H]1CN(C(C)c2ccn3nccc3n2)[C@H](CC)CN1c1cc(=O)n(C)c2cn(CC#N)nc12 (single isomer, unassigned) [Compound A154a] |
| 0.055 µM | 0.012 µM | CC[C@H]1CN(C(C)c2ccn3nccc3n2)[C@H](CC)CN1c1cc(=O)n(C)c2cn(CC#N)nc12 (single isomer, unassigned) [Compound A154b] |
| 5.13 µM | > 10 µM | CC[C@H]1CN(C(C)c2ccn3nc(C)c(C)c3n2)[C@H](CC)CN1c1cc(=O)n(C)c2cn(CC#N)nc12 (single isomer, unassigned) [Compound A156a] |
| 0.023 µM | 0.31 µM | CC[C@H]1CN(C(C)c2ccn3nc(C)c(C)c3n2)[C@H](CC)CN1c1cc(=O)n(C)c2cn(CC#N)nc12 (single isomer, unassigned) [Compound A156b] |
| > 10 µM | > 10 µM | CC[C@H]1CN(C(C)c2ccn3nc(C)cc3n2)[C@H](CC)CN1c1nc(=O)n(C)c2cn(CC#N)nc12 (single isomer, unassigned) [Compound A157a] |
| 0.166 µM | 0.183 µM | CC[C@H]1CN(C(C)c2ccn3nc(C)cc3n2)[C@H](CC)CN1c1nc(=O)n(C)c2cn(CC#N)nc12 (single isomer, unassigned) [Compound A157b] |
| > 10 µM | 0.33 µM | CC[C@H]1CN(C(C)c2ccn3nc(F)cc3n2)[C@H](CC)CN1c1cc(=O)n(C)c2cn(CC#N)nc12 (single isomer, unassigned) [Compound A158a] |
| 0.091 µM | 0.021 µM | CC[C@H]1CN(C(C)c2ccn3nc(F)cc3n2)[C@H](CC)CN1c1cc(=O)n(C)c2cn(CC#N)nc12 (single isomer, unassigned) [Compound A158b] |
| 4.12 µM | 5.97 µM | CC[C@H]1CN(C(C)c2ccn3nc(C)c(F)c3n2)[C@H](CC)CN1c1cc(=O)n(C)c2cn(CC#N)nc12 (single isomer, unassigned) [Compound A160a] |

Second part, the compound before the results:

| Compound | IC50 (DGKζ) | IC50 (DGKα) |
| --- | --- | --- |
| CC[C@H]1CN(C(C)c2ccc3cc(C(F)F)sc3n2)[C@H](CC)CN1c1cc(=O)n(C)c2cn(CC#N)nc12 (single isomer, unassigned) [Compound A144a] | 1.3 µM | 0.27 µM |
| CC[C@H]1CN(C(C)c2ccc3nc(COC)sc3c2)[C@H](CC)CN1c1cc(=O)n(C)c2cn(CC#N)nc12 (single isomer, unassigned) [Compound A145a] | 0.047 µM | 0.545 µM |
| CC[C@H]1CN(C(C)c2ccc3nc(COC)sc3c2)[C@H](CC)CN1c1cc(=O)n(C)c2cn(CC#N)nc12 (single isomer, unassigned) [Compound A145b] | 0.939 µM | 3.35 µM |
| CC[C@H]1CN(C(C)c2ccc3nc(OC4CC4)sc3n2)[C@H](CC)CN1c1cc(=O)n(C)c2cn(CC#N)nc12 (single isomer, unassigned) [Compound A146a] | 1.75 µM | 2.4 µM |
| CC[C@H]1CN(C(C)c2ccc3nc(OC4CC4)sc3n2)[C@H](CC)CN1c1cc(=O)n(C)c2cn(CC#N)nc12 (single isomer, unassigned) [Compound A146b] | 0.104 µM | 0.205 µM |
| CC[C@H]1CN(C(C)c2ccc3nc(OCCF)sc3n2)[C@H](CC)CN1c1cc(=O)n(C)c2cn(CC#N)nc12 (single isomer, unassigned) [Compound A147a] | 0.152 µM | 0.18 µM |
| CC[C@H]1CN(C(C)c2ccc3nc(OCCF)sc3n2)[C@H](CC)CN1c1cc(=O)n(C)c2cn(CC#N)nc12 (single isomer, unassigned) [Compound A147b] | 1.51 µM | 1.57 µM |
| CC[C@H]1CN(C(C)c2ccc3cc(C(F)F)sc3n2)[C@H](CC)CN1c1nc(=O)n(C)c2cn(CC#N)nc12 (single isomer, unassigned) [Compound A148a] | 2.31 µM | 1.28 µM |
| CC[C@H]1CN(C(C)c2ccc3cc(C(F)F)sc3n2)[C@H](CC)CN1c1nc(=O)n(C)c2cn(CC#N)nc12 (single isomer, unassigned) [Compound A148b] | 0.045 µM | 0.036 µM |
| CC[C@H]1CN(C(C)c2ccc3nc(C)cn3n2)[C@H](CC)CN1c1nc(=O)n(C)c2cn(CC#N)nc12 (single isomer, unassigned) [Compound A150a] | > 10 µM | 7.14 µM |
| CC[C@H]1CN(C(C)c2ccc3nc(C)cn3n2)[C@H](CC)CN1c1nc(=O)n(C)c2cn(CC#N)nc12 (single isomer, unassigned) [Compound A150b] | 0.267 µM | 0.124 µM |
| Cc1cc2nc(C(C)N3C[C@H](C)N(c4cc(=O)n(C)c5cn(CC#N)nc45)C[C@H]3C)ccc2s1 (single isomer, unassigned) [Compound A155a] | 0.02 µM | 1.14 µM |
| Cc1cc2nc(C(C)N3C[C@H](C)N(c4cc(=O)n(C)c5cn(CC#N)nc45)C[C@H]3C)ccc2s1 (single isomer, unassigned) [Compound A155b] | 1.97 µM | 0.139 µM |
| CC[C@H]1CN(C(C)c2ccn3nccc3c2)[C@H](CC)CN1c1nc(=O)n(C)c2cn(CC#N)nc12 (single isomer, unassigned) [Compound A159a] | 0.056 µM | 0.038 µM |
| CC[C@H]1CN(C(C)c2ccn3nccc3c2)[C@H](CC)CN1c1nc(=O)n(C)c2cn(CC#N)nc12 (single isomer, unassigned) [Compound A159b] | 1.12 µM | 0.04 µM |
